The results in this text go back to ChEMBL document CHEMBL4706528, “The design, synthesis and anti-tumor mechanism study of new androgen receptor degrader” (Eur J Med Chem, 2020).

Assay [1] has as its system LNCaP. Put plainly: Induction of apoptosis in human LNCaP cells assessed as necrotic cells level at 10 micromol/L incubated for 24 hrs by Annexin V/PI staining staining based flow cytometry (reference value: 0.694%). The class given is functional. The conditions noted are these: dose 10 µmol/L, at 10 µM. (A flow cytometer gives signals particle by particle.)
The test system of assay [2] is PC-3. Put plainly: Antiproliferative activity against androgen-negative human PC-3 cells assessed as cell growth inhibition measured after 72 hrs by SRB assay. It counts as functional, cell-based. The conditions noted are these: PC-3, 72 h.
Assay [3] is described as follows: Cytotoxicity against androgen-negative human WPMY-1 cells assessed as cell growth inhibition measured after 72 hrs by SRB assay. It counts as cell-based. The conditions noted are these: WPMY-1, 72 h. Background: The SRB assay estimates cell density from bound dye.
For assay [4], the system named is MCF7. Put plainly: Antiproliferative activity against androgen-positive human MCF7 cells assessed as cell growth inhibition measured after 72 hrs by SRB assay. The class given is functional, cell-based. As to conditions: MCF7, 72 h.
Assay [5] relates to LNCaP. In words: Induction of cell cycle arrest in human LNCaP cells assessed as accumulation at S phase at 1 micromol/L after 24 hrs by RNase A/PI-staining based flow cytometric analysis (reference value: 20.69%). The class given is functional. The conditions noted are these: dose 1 µmol/L, at 1 µM.
In assay [6] the target is T1, Androgen receptor (Homo sapiens) (UniProt P10275).
T1 sequence (whole entry): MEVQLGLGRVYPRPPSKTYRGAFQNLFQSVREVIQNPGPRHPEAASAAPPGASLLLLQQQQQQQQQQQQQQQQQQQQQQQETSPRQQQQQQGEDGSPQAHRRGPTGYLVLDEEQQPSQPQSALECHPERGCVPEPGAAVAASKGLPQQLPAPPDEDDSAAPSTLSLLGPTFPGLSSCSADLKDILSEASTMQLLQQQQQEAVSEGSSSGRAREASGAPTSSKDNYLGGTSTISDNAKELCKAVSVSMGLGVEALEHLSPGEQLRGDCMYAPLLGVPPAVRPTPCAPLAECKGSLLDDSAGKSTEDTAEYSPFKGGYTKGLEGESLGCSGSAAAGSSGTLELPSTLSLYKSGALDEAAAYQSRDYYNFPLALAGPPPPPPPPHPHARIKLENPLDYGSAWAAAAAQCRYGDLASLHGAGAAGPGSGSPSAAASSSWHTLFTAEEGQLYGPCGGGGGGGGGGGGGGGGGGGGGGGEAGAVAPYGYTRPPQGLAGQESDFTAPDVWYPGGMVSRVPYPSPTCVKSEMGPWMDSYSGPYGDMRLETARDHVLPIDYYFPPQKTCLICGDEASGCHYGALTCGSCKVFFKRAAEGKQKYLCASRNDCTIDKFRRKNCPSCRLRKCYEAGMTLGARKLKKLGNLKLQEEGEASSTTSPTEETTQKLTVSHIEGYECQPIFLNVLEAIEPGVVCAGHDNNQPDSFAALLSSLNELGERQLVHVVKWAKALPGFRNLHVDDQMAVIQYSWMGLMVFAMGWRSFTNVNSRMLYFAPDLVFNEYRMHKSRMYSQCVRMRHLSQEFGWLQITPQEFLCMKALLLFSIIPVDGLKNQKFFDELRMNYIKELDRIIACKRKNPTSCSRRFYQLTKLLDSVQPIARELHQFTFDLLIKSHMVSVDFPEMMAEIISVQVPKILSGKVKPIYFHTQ
Put plainly: Selective androgen receptor degradation activity at androgen receptor in human LNCaP cells assessed as down regulation of protein level at 10 uM after 72 hrs by Western blot analysis. It counts as cell-based. (In western blotting, separated proteins are transferred to a membrane and probed.)

For assay [7], the target named is T1, Androgen receptor (Homo sapiens). Put plainly: Selective androgen receptor degradation activity at androgen receptor in human LNCaP cells assessed as down regulation of protein level at 10 uM after 24 hrs in presence of E-64 by Western blot analysis. The class given is cell-based.
Assay [8] deals with LNCaP. In words: Induction of cell cycle arrest in human LNCaP cells assessed as accumulation at S phase at 10 micromol/L after 24 hrs by RNase A/PI-staining based flow cytometric analysis (reference value: 20.69%). The class given is functional. As to conditions: dose 10 µmol/L, at 10 µM.
The subject of assay [9] is LNCaP. Put plainly: Induction of cell cycle arrest in human LNCaP cells assessed as accumulation at G2 phase at 1 micromol/L after 24 hrs by RNase A/PI-staining based flow cytometric analysis (reference value: 20.87%). It counts as functional. The conditions noted are these: dose 1 µmol/L, at 1 µM.
In assay [10] the test system is LNCaP. In words: Induction of apoptosis in human LNCaP cells assessed as viable cells level at 2 micromol/L incubated for 24 hrs by Annexin V/PI staining staining based flow cytometry (reference value: 96.3%). The class given is functional. The conditions noted are these: dose 2 µmol/L, at 2 µM.
In assay [11] the target is Prostate-specific antigen (Homo sapiens) (UniProt P07288). Put plainly: Induction of downregulation of PSA (unknown orgin) human LNCaP cells at 2 uM after 24 hrs by Western blot analysis.
Assay [12] concerns LNCaP. Put plainly: Induction of apoptosis in human LNCaP cells assessed as necrotic cells level at 2 micromol/L incubated for 24 hrs by Annexin V/PI staining staining based flow cytometry (reference value: 0.694%). As to conditions: dose 2 µmol/L, at 2 µM. The class given is functional.
Assay [13] has as its system LNCaP C4-2B. Put plainly: Antiproliferative activity against androgen-sensitive positive human LNCaP C4-2B cells assessed as cell growth inhibition measured after 72 hrs by SRB assay. It counts as functional, cell-based.
Assay [14] has as its system LNCaP. In words: Induction of cell cycle arrest in human LNCaP cells assessed as accumulation at G1 phase at 1 micromol/L after 24 hrs by RNase A/PI-staining based flow cytometric analysis (reference value: 47.99%). It counts as functional. As to conditions: dose 1 µmol/L, at 1 µM.
Assay [15] has as its target T1, Androgen receptor (Homo sapiens). In words: Selective androgen receptor degradation activity at androgen receptor in human LNCaP cells assessed as down regulation of protein level at 10 uM after 24 hrs by Western blot analysis. The class given is cell-based.
Assay [16] has as its system LNCaP. In words: Induction of apoptosis in human LNCaP cells assessed as viable cells level at 1 micromol/L incubated for 24 hrs by Annexin V/PI staining staining based flow cytometry (reference value: 96.3%). The conditions noted are these: dose 1 µmol/L, at 1 µM. The class given is functional.
Assay [17] has as its system LNCaP. In words: Induction of apoptosis in human LNCaP cells assessed as early apoptotic cells level at 2 micromol/L incubated for 24 hrs by Annexin V/PI staining staining based flow cytometry (reference value: 2.09%). It counts as functional. The conditions noted are these: dose 2 µmol/L, at 2 µM.
Assay [18] concerns LNCaP. In words: Induction of apoptosis in human LNCaP cells assessed as early apoptotic cells level at 10 micromol/L incubated for 24 hrs by Annexin V/PI staining staining based flow cytometry (reference value: 2.09%). The class given is functional. As to conditions: dose 10 µmol/L, at 10 µM.
Assay [19] deals with T1, Androgen receptor (Homo sapiens). Put plainly: Selective androgen receptor degradation activity at androgen receptor in human LNCaP cells assessed as down regulation of protein level at 1 uM after 24 hrs by Western blot analysis. The class given is cell-based.
Assay [20] has the same target. In words: Selective androgen receptor degradation activity at androgen receptor in human LNCaP cells assessed as down regulation of protein level at 10 uM after 24 hrs in presence of MG132 by Western blot analysis. The class given is cell-based.
Assay [21] deals with LNCaP. Put plainly: Induction of apoptosis in human LNCaP cells assessed as late apoptotic cells level at 10 micromol/L incubated for 24 hrs by Annexin V/PI staining staining based flow cytometry (reference value: 0.940%). It counts as functional. The conditions noted are these: dose 10 µmol/L, at 10 µM.
In assay [22] the test system is SGC-7901. In words: Antiproliferative activity against androgen-positive human SGC-7901 cells assessed as cell growth inhibition measured after 72 hrs by SRB assay. It counts as functional, cell-based. As to conditions: SGC-7901, 72 h.
Assay [23] concerns LNCaP. Put plainly: Induction of cell cycle arrest in human LNCaP cells assessed as accumulation at G1 phase at 10 micromol/L after 24 hrs by RNase A/PI-staining based flow cytometric analysis (reference value: 47.99%). The class given is functional. As to conditions: dose 10 µmol/L, at 10 µM.
Assay [24] relates to LNCaP. In words: Induction of apoptosis in human LNCaP cells assessed as necrotic cells level at 1 micromol/L incubated for 24 hrs by Annexin V/PI staining staining based flow cytometry (reference value: 0.694%). It counts as functional. As to conditions: dose 1 µmol/L, at 1 µM.

Calls of active or inactive are those of the source. The calls are words filed in the database; no cut-off is given here.

Chain of Prostate-specific antigen (Homo sapiens) (P07288 whole entry, looked up): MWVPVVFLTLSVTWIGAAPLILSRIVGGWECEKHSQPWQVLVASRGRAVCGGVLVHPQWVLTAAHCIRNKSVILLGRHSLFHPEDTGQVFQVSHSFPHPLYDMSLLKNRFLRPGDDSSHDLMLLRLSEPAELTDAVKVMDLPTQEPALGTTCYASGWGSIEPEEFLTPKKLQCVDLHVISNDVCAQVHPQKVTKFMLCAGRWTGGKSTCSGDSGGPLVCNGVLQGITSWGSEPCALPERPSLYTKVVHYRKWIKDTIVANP

Usually IC50 stands for the concentration needed to halve the response being measured. Consider `CC1(C)C(=O)N(c2ccc(C#N)c(C(F)(F)F)c2)C(=S)N1CCCCCn1cc(COCCOCCOC(=O)CC23CC4CC(CC(C4)C2)C3)nn1`, for which the Activity in assay [1] stood at 0.024%; in assay [5] it was 19.84%; in assay [8], 16.11%; in [9], 20.07%; in assay [10] it was 96.1%; in assay [12], 0.774%. Also, the Activity in assay [14] was 59.3%; in assay [16], 96.1%; in [17], 1.56%; in assay [18], 14.4%; in assay [21], 6.6%; in assay [23], 74.56%. Further, the Activity in [24] was determined as 0.774%. The half-inhibitory concentration (IC50) was over 80 µM in assay [2]; over 80 µM in assay [3]; 50.5 µM in [4]; 16.6 µM in assay [13]; 6.93 µM in [22]. Further, the result in [6], in assay [7], in assay [11], in assay [15], in [19] and in [20] was Active.
